Structures are written as SMILES.

One test deals with T1, Human CD73 (Homo sapiens, UniProt P21589).
T1 construct: purchased R&D Systems; host or cells: CHO cells
T1 sequence (P21589 27-549): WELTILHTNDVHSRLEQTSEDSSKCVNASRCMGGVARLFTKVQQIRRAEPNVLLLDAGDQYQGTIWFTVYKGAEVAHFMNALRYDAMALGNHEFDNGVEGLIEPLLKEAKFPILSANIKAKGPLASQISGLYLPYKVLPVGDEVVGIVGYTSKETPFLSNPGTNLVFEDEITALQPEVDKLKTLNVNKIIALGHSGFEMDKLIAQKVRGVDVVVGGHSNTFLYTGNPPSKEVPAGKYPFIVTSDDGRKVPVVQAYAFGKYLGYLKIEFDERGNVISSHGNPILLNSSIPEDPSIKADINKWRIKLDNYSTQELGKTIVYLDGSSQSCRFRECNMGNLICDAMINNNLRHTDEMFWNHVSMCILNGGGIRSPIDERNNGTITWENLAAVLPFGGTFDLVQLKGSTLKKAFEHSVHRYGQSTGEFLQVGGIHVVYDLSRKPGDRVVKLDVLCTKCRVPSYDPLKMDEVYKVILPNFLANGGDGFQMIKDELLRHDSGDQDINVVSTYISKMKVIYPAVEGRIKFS
Nature of the test: CD73 Enzyme Assay. Type of test: biochemical. Conditions: 0.25 nM hCD73, 25 μM AMP, kinetic read at 360 nm; read-out: CD73 Enzyme Assay IC50.

Test [1] has as its target T2, CD73 on U138 human neuroglioma cells (Homo sapiens, UniProt P21589).
T2 construct: U138 cells were obtained from ATCC and cultured in DMEM with 10% FBS; host or cells: U138 human neuroglioma cells
T2 sequence (P21589 27-549): T1 sequence (P21589 27-549)
Nature of the test: CD73 Cell-Based Assay. The note with it: U138 cells, AMP substrate, 2 hours at 37° C., inorganic phosphate by malachite green. An outline of the steps:
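Whole U138 cells washed free of phosphate were incubated with 200 μM AMP (mixture concentration before equal-volume addition) plus compound in HEPES-buffered saline, pH 7.4, for 2 h at 37 °C, 5% CO2. Adenosine-forming activity read as inorganic phosphate released into supernatant by malachite green.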

The IC50 is the concentration at which inhibition is half-maximal. Regarding `O=P(O)(O)COC[C@H]1O[C@@H](n2ccc3c(NC4CCC(F)(F)C4)nc(Cl)nc32)[C@H](O)[C@@H]1O` (stereo partly drawn) [Compound 101, [(2R,3S,4R,5R)-5-[2-chloro-4-[(3,3-difluoro-cyclopentyl)amino]-pyrrolo[2,3-d]-pyrimidin-7-yl]-3,4-dihydroxy-tetrahydro-furan-2-yl]methoxy-methylphosphonic acid], the IC50 (on Human CD73; in test [1]) was below 10 nM in each case.
Take `CC(C)Nc1nc(C#N)nc2c1ncn2[C@@H]1O[C@H](COCP(=O)(O)O)[C@@H](O)[C@H]1O` [Compound 16, [(2R,3S,4R,5R)-5-[2-cyano-6-(isopropyl-amino)purin-9-yl]-3,4-dihydroxy-tetrahydrofuran-2-yl]methoxymethyl-phosphonic acid]: the IC50 fell in the range of 10 to 100 nM at Human CD73 and 100 to 1000 nM in test [1].
As to `N#Cc1nc(N2CCC2)c2ccn([C@@H]3O[C@H](COCP(=O)(O)O)[C@@H](O)[C@H]3O)c2n1` [Compound 122, [(2R,3S,4R,5R)-5-[4-(azetidin-1-yl)-2-cyano-pyrrolo[2,3-d]-pyrimidin-7-yl]-3,4-dihydroxy-tetrahydro-furan-2-yl]methoxy-methylphosphonic acid], the IC50 (on Human CD73; in test [1]) was 10 to 100 nM throughout.
`O=P(O)(O)COC[C@H]1O[C@@H](n2ncc3c(NC4CC(F)(F)C4)nc(Cl)nc32)[C@H](O)[C@@H]1O` [Compound 271, [(2R,3S,4R,5R)-5-[6-chloro-4-[(3,3-difluoro-cyclobutyl)amino]-pyrazolo[3,4-d]-pyrimidin-1-yl]-3,4-dihydroxy-tetrahydro-furan-2-yl]methoxy-methylphosphonic acid]: the IC50 (at Human CD73; in test [1]) was below 10 nM in each case.
With `C[C@H](Nc1nc(Cl)nc2c1ccn2[C@@H]1O[C@H](COCP(=O)(O)O)[C@@H](O)[C@H]1O)c1ccc(F)cc1F` [Compound 116, [(2R,3S,4R,5R)-5-[2-chloro-4-[[(1S)-1-(2,4-difluorophenyl)-ethyl]amino]pyrrolo-[2,3-d]pyrimidin-7-yl]-3,4-dihydroxy-tetrahydrofuran-2-yl]methoxymethyl-phosphonic acid], the IC50 (on Human CD73; in test [1]) was below 10 nM throughout.
Take `C[C@@H](Nc1nc(Cl)nc2c1ccn2[C@@H]1O[C@H](CS(=O)(=O)CP(=O)(O)O)[C@@H](O)[C@H]1O)c1ccc(F)cc1` [Compound 167, [(2S,3S,4R,5R)-5-[2-chloro-4-[[(1R)-1-(4-fluorophenyl)ethyl]-amino]pyrrolo[2,3-d]-pyrimidin-7-yl]-3,4-dihydroxy-tetrahydro-furan-2-yl]methyl-sulfonylmethylphos-phonic acid]: the IC50 (at Human CD73; in test [1]) was below 10 nM each time.
Turning to `Cc1ccc([C@@H](C)Nc2nc(Cl)nc3c2ccn3[C@@H]2O[C@H](CS(=O)(=O)CP(=O)(O)O)[C@@H](O)[C@H]2O)cc1` [Compound 169, [(2S,3S,4R,5R)-5-[2-chloro-4-[[(1R)-1-(p-tolyl)ethyl]amino]-pyrrolo[2,3-d]-pyrimidin-7-yl]-3,4-dihydroxy-tetrahydro-furan-2-yl]methyl-sulfonylmethylphos-phonic acid], the IC50 (at Human CD73; in test [1]) was below 10 nM throughout.
As for `O=P(O)(O)CS(=O)(=O)C[C@H]1O[C@@H](n2ccc3c(NC4CCCC4)nc(C(F)(F)F)nc32)[C@H](O)[C@@H]1O` [Compound 303, [(2S,3S,4R,5R)-5-[4-(cyclopentylamino)-2-(trifluoromethyl)-pyrrolo[2,3-d]-pyrimidin-7-yl]-3,4-dihydroxy-tetrahydro-furan-2-yl]methyl-sulfonylmethylphos-phonic acid], the IC50 (on Human CD73; in test [1]) was 10 to 100 nM throughout.
As for `N#Cc1nc(N2CCC(F)(F)CC2)c2ccn([C@@H]3O[C@H](COCP(=O)(O)O)[C@@H](O)[C@H]3O)c2n1` [Compound 129, [(2R,3S,4R,5R)-5-[2-cyano-4-(4,4-difluoro-1-piperidyl)pyrrolo-[2,3-d]pyrimidin-7-yl]-3,4-dihydroxy-tetrahydrofuran-2-yl]-methoxymethylphos-phonic acid], the IC50 (at Human CD73; in test [1]) was 10 to 100 nM in each case.
With `C[C@H](Nc1nc(C#N)nc2c1ccn2[C@@H]1O[C@H](COCP(=O)(O)O)[C@@H](O)[C@H]1O)c1cccc(F)c1` [Compound 75, [(2R,3S,4R,5R)-5-[2-cyano-4-[[(1S)-1-(3-fluorophenyl)ethyl]-amino]pyrrolo[2,3-d]-pyrimidin-7-yl]-3,4-dihydroxy-tetrahydro-furan-2-yl]methoxy-methylphosphonic acid], the IC50 was below 10 nM on Human CD73 and 10 to 100 nM in test [1].
Turning to `C[C@H](Nc1nc(Cl)nc2c1ncn2[C@@H]1O[C@H](COCP(=O)(O)O)[C@@H](O)[C@H]1O)c1ccccc1` [Compound 21, ((((2R,3S,4R,5R)-5-(2-chloro-6-(((S)-1-phenylethyl)amino)-9H-purin-9-yl)-3,4-dihydroxytetrahydrofuran-2-yl)methoxy)methyl)phosphonic acid], the IC50 (at Human CD73; in test [1]) was 10 to 100 nM throughout.
For `C[C@@H](Nc1nc(Cl)nc2c1cnn2[C@@H]1O[C@H](COCP(=O)(O)O)[C@@H](O)[C@H]1O)c1ccc(F)cc1` [Compound 269, [(2R,3S,4R,5R)-5-[6-chloro-4-[[(1R)-1-(4-fluorophenyl)ethyl]-amino]pyrazolo[3,4-d]-pyrimidin-1-yl]-3,4-dihydroxy-tetrahydro-furan-2-yl]methoxy-methylphosphonic acid], the results for the 50% inhibitory concentration (IC50) (at Human CD73; in test [1]) were 10 to 100 nM and below 10 nM, respectively.
For the compound `C[C@@H](Nc1nc(Cl)nc2c1ccn2[C@@H]1O[C@H](CS(=O)(=O)CP(=O)(O)O)[C@@H](O)[C@H]1O)c1ccccc1` [Compound 154, [(2S,3S,4R,5R)-5-[2-chloro-4-[[(1R)-1-phenylethyl]amino]-pyrrolo[2,3-d]-pyrimidin-7-yl]-3,4-dihydroxy-tetrahydro-furan-2-yl]methyl-sulfonylmethylphos-phonic acid], the IC50 (on Human CD73; in test [1]) was below 10 nM in each case.
For `O=P(O)(O)COC[C@H]1O[C@@H](n2ccc3c(NC4CCCC4)nc(OCCO)nc32)[C@H](O)[C@@H]1O` [Compound 257, ((((2R,3S,4R,5R)-5-(4-(cyclopentylamino)-2-(2-hydroxyethoxy)-7H-pyrrolo[2,3-d]pyrimidin-7-yl)-3,4-dihydroxytetrahydrofuran-2-yl)methoxy)methyl)phosphonic acid], the IC50 (on Human CD73; in test [1]) was below 10 nM throughout.
`C[C@H](Nc1nc(Cl)nc2c1c(F)cn2[C@@H]1O[C@H](COCP(=O)(O)O)[C@@H](O)[C@H]1O)c1ccccc1` [Compound 76, ((((2R,3S,4R,5R)-5-(2-chloro-5-fluoro-4-(((S)-1-phenylethyl)amino)-7H-pyrrolo[2,3-d]pyrimidin-7-yl)-3,4-dihydroxytetrahydrofuran-2-yl)methoxy)methyl)phosphonic acid]: the values for the IC50 (on Human CD73; in test [1]) were below 10 nM and 10 to 100 nM, respectively.
Take `CC(C)Nc1nc(Cl)nc2c1ncn2[C@@H]1O[C@H](COCP(=O)(O)O)[C@@H](O)[C@H]1O` [Compound 15, [(2R,3S,4R,5R)-5-[2-chloro-6-(isopropyl-amino)purin-9-yl]-3,4-dihydroxy-tetra-hydrofuran-2-yl]-methoxymethylphos-phonic acid]: the IC50 lay within 10 to 100 nM on Human CD73 and 100 to 1000 nM in test [1].
On to `C[C@@H](Nc1nc(C#N)nc2c1ccn2[C@@H]1O[C@H](COCP(=O)(O)O)[C@@H](O)[C@H]1O)c1ccc(F)cn1` [Compound 145, [(2R,3S,4R,5R)-5-[2-cyano-4-[[(1R)-1-(5-fluoro-2-pyridyl)ethyl]-amino]pyrrolo[2,3-d]-pyrimidin-7-yl]-3,4-dihydroxy-tetrahydro-furan-2-yl]methoxy-methylphosphonic acid], for which the IC50 on Human CD73 lay in the range of 100 to 1000 nM; in test [1] it was 10 to 100 nM.
Consider `CNc1nc(Cl)nc2c1ccn2[C@@H]1O[C@H](COCP(=O)(O)O)[C@@H](O)[C@H]1O` [Compound 96, [(2R,3S,4R,5R)-5-[2-chloro-4-(methyl-amino)pyrrolo[2,3-d]-pyrimidin-7-yl]-3,4-dihydroxy-tetrahydro-furan-2-yl]methoxy-methylphosphonic acid], for which the IC50 (on Human CD73; in test [1]) was 100 to 1000 nM throughout.
On to `C[C@@H](Nc1nc(Cl)nc2c1ccn2[C@@H]1O[C@H](COCP(=O)(O)O)[C@@H](O)[C@H]1O)c1cccc(F)c1` [Compound 82, [(2R,3S,4R,5R)-5-[2-chloro-4-[[(1R)-1-(3-fluorophenyl)ethyl]-amino]pyrrolo[2,3-d]-pyrimidin-7-yl]-3,4-dihydroxy-tetrahydro-furan-2-yl]methoxy-methylphosphonic acid], for which the results for the IC50 (at Human CD73; in test [1]) were 10 to 100 nM and below 10 nM, respectively.

The values above are taken from patent US11591355B2 (Peloton Therapeutics, Inc., priority 2017, dated 2023).
